pKd: −log10 of the molar value.

Results on 1 substance are retold here after US6982252B2, “Inhibition of vacuolar proton ATPase activity and/or the modulation of acidic organelle function sensitizes cells to radiation, chemotherapy and biological agents” (Memorial Sloan-Kettering Cancer Center, priority 2000, dated 2006).

Data set [1] relates to acidic vesicular organelles (AVO) in MCF-7 cells. Put plainly: Mean red/green fluorescence ratio in acridine orange stained cells by flow cytometry. The data set is classed as cell-based, human. The settings on record: 500 nM bafilomycin A1 30 minutes prior to acridine orange. Here is the method: bFGF was added to cultures of MCF-7 cells at 10 ng/ml for 48 hours. TNF was added at 2.3 nM for 48 hours. PMA was added for 1 hour at a concentration of 30 nM, followed by rinsing of the cells and incubation for an additional 48 hours.
Cell staining was performed according to standard techniques (Arvan et al., 1984, J. Bio. Chem. 259:13567-13572; Mains and May, 1988, J. Biol. Chem. 263:7887-7894; Traganos and Darzynkiewicz, Methods in Cell Biology 41:185-194, Academic Press). Acridine orange (Polysciences, Warrington, Pa.) was added to a final concentration of 1 μg/ml for 15 minutes. Bafilomycin A1 (Sigma Chemical Co., St. Louis, Mo.) was dissolved in DMSO and added to the cells 30 minutes prior to the addition of acridine orange. LysoSensor Blue DND-167 (Molecular Probes, Eugene, Oreg.) at a final concentration of 10 μM was added for 8 minutes. Pictures were obtained with a fluorescence microscope (Olympus BH-2 RFCA), equipped with a mercury-100 W lamp, 490 nm band pass blue excitation filters, 500 nm dichroic mirror and a 515 nm long pass barrier filter. Images of control and irradiated cells were recorded on Kodak Elite II 100 ASA film for color slides by 4 seconds exposure.
In acridine orange stained cells the cytoplasm and nucleolus fluoresce bright green and dim red, while acidic compartments fluoresce bright red (Mains and May, 1988, J. Biol. Chem. 263:7887-7894; Traganos and Darzynkiewicz, Methods in Cell Biology Vol. 41, pp. 185-194, Academic Press). The intensity of the red fluorescence is proportional to the degree of acidity and/or the volume of the cellular acidic compartment. Therefore, by comparing the mean red/green fluorescence ratio within different cell populations, a change in the degree of acidity and/or the fractional volume of the cellular acidic compartment could be measured. Cells were stained with acridine orange for […], removed from the plate with trypsin-EDTA and collected in phenol red-free growth medium. Green (510-530 nm) and red (>650 nm) Fluoresence emission from 10,000 cells illuminated with blue (488 nm) excitation light was measured with a FACSCalibur from Becton Dickinson (San Jose, Calif.) using CellQuest software. The red to green fluorescence ratio for individual cells was calculated using FlowJo software (TREE STAR, Inc., San Carlos, Calif.). To control for possible effect of trypsinization on the measured red to green fluorescence ratio, the ratios were compared by flow cytometry with those obtained with a Laser Scanning Microscope (LSM510 from Zeiss). Stained cells, grown on cover glass, were illuminated with a 488 nm argon laser beam. The red (>650 nm) to green (505-545 nm) fluorescence ratio of an entire image was obtained using software LSM 510 version 2.01 SP2. These measurements yielded similar results to those obtained with flow cytometry. All determinations of red to green fluorescence ratio reported in this section were obtained via flow cytometry.
For orientation: In flow cytometry, cells or beads pass a laser one at a time.

Data set [2] concerns DNA of irradiated MCF-7 cells. Kind of data set: DNA fragmentation by pulse field gel electrophoresis (PFGE). The class given is cell-based, human. Conditions: bafilomycin A1 (4 nM) added two days following 10 Gy, for 24 hours. Here is the method: FIG. 6. Bafilomycin A1 enhances DNA fragmentation in irradiated cells: Cells were irradiated 48 hours post-plating and bafilomycin A1 (4 nM) was added 48 hours following irradiation, for the duration of 24 hours, from concentrated stock solution at dimethylsulfoxide (DMSO) to a final concentration of 4 nM. Control cells received the vehicle alone. Cells were harvested 72 hours following irradiation. Plug preparation and resolution of DNA was conducted according to Gilles et al. (2000, Blood 95:2930-2936). M-DNA size standard, lambda 50 kb ladder. A-Unirradiated controls. B-Cells irradiated with 10 Gy. C-Unirradiated cells incubated with 4 nM bafilomycin A1. D-Cells irradiated with 10 Gy and incubated with 4 nM bafilomycin A1. Window of DNA resolution was 20 kb-1000 kb. Arrow 1 points to sample origin. Arrow 2 points to zone of no resolution.
DNA extraction and electrophoresis on agarose gel was carried out according to Bose et al., 1995, Cell 82:405-414. DNA preparation and resolution with pulse field gel electrophoresis (PFGE) was conducted as described in Gilles et al., 2000, Blood 95:2930-2936 utilizing the CHEF Mapper (Bio-Rad, Richmond, Calif.). DNA strand breaks were assayed by the TUNEL method and analyzed by flow cytometry (Haimovitz-Friedman, 1994, J. Exp. Med. 180:525-535).

The target of data set [3] is T1, V-ATPase (Homo sapiens, UniProt P27449). Conditions: Gagliardi et al., 1999; cited from earlier work.
T1 sequence (P27449 whole entry): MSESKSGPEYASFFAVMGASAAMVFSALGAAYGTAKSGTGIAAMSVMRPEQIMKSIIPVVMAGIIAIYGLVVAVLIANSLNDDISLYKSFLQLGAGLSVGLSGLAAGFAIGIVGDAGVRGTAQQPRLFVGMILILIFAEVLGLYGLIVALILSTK
Data set [4] deals with T1, V-ATPase. The settings on record: binding to V-ATPase; Drose and Altendorf, 1997; cited from earlier work.
In another data set the test system is F and P-type ATPases. The settings on record: cited from earlier work.
Data set [5] relates to Capan-1 human pancreatic cancer cell line. The settings on record: Capan-1 in vitro; cited from earlier work.
The conditions of data set [6]: cited from earlier work.
Where [7] appears, read: subcutaneous, 1.4 mol/kg/day for 14 days.

By pKd is commonly meant the Kd on a negative log10 scale, so that one unit is a factor of ten. Turning to bafilomycin A1, the “radiation-induced increase of mean red/green fluorescence ratio” value in data set [1] (24 hours following 10 Gy) is reported as “inhibited its radiation-induced increase”. Also, in data set [1] (unirradiated), the “mean red/green fluorescence ratio in unirradiated cells” value was “decreased”. Also, the “DNA cleavage into large fragments (20-1000 kb)” value in data set [2] is reported as “dramatically increased DNA clevage into large fragments”. Also, the “concentration range that inhibits V-H+-ATPase activity without affecting F or P-type ATPases” value on V-ATPase [3] is reported as “nM range”. Moreover, the pKd at V-ATPase [4] is 8.00. Also, the “concentration range at which F and P-type ATPases activities are affected” value in the data set on F and P-type ATPases is reported as “μM range”. Moreover, the “concentrations reported to induce apoptosis” value in data set [5] was “greater than 10 nM”. In data set [6] (intravenous, Keeling, 1997), the “toxicity when injected intravenously” value is “toxic”. Also, in data set [6] (setting [7]), the bone readsorption entry is “increased bone readsorption” and the toxicity result is listed as “non-toxic”. Moreover, the “tolerability when administered subcutaneously” value in data set [6] (subcutaneous) is “tolerated”.
